According to ChEMBL document CHEMBL1155927, “Synthesis and evaluation of 5'-modified 2'-deoxyadenosine analogues as anti-hepatitis C virus agents” (Bioorg Med Chem Lett, 2008):

What was measured:
[1] = Cytotoxicity in human Huh7 cells by XTT assay; type: cell-based, Huh-7
[2] = test system: Hepatitis C virus; experiment: Antiviral activity against HCV assessed as inhibition of viral RNA replication in Huh7 cells; type: functional, organism-based, Hepacivirus hominis; details: Huh-7

EC50 [2]	Compound	CC50 [1]
40.4 µM	CON(C)C(=O)CC[C@H]1O[C@@H](n2cnc3c(Cl)ncnc32)C[C@@H]1O	> 200 µM
32.9 µM	COC(=O)CC[C@H]1O[C@@H](n2cnc3c(Cl)ncnc32)C[C@@H]1O	> 200 µM
15.1 µM	O=C(CC[C@H]1O[C@@H](n2cnc3c(Cl)ncnc32)C[C@@H]1O)c1ccccc1	76.3 µM
> 200 µM	COC(=O)CC[C@H]1O[C@@H](n2cnc3c(N)ncnc32)C[C@@H]1O	–
> 200 µM	CON(C)C(=O)CC[C@H]1O[C@@H](n2cnc3c(N)ncnc32)C[C@@H]1O	–
> 200 µM	Nc1ncnc2c1ncn2[C@H]1C[C@H](O)[C@@H](CCC(=O)c2ccccc2)O1	–
